From patent US12703729B2, “GIP agonist compounds and methods” (Zealand Pharma A/S, priority 2014, dated 2026)
Starred links: 1 amine or outer side, 2 acyl side, 3 side chain; linkers in the order of their positions; H or OH if unused. Non-standard residues stand in square brackets, D forms with d. Residues, ends and D or L forms follow the SMILES beside them. Groups on a side chain read outwards from the residue. *: point of attachment. X1 = O=C(O)CCCCCCCCCCCCCCCCCCC(=O)N1CCN(CC(=O)*)CC1; C20 diacid = O=C(O)CCCCCCCCCCCCCCCCCCC(=O)*; γGlu = O=C(O)[C@H](CCC(=O)[*:2])N[*:1]; AEEA = NCCOCCOCC(=O)O; Aib = CC(C)(N)C(=O)O

Assays:
human GIP R = molecular target: T1, human GIP R (Homo sapiens, UniProt P48546); experiment: cell-based
T1 sequence (P48546 22-466): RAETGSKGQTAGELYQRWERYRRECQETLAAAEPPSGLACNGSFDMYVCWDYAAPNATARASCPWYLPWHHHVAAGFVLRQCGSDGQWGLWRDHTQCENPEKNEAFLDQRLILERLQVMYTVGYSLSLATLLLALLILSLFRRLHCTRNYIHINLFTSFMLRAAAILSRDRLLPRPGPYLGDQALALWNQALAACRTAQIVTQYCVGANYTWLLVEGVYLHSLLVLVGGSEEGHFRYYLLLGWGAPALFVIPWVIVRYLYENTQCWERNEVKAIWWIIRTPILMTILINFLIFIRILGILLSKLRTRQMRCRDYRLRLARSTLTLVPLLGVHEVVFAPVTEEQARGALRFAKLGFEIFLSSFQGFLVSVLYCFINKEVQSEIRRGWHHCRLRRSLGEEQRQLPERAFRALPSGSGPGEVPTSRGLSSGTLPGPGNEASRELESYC

[1] = molecular target: T2, human GIP receptor (GIP R) (Homo sapiens, UniProt P48546); experiment: Activity assay at human GIP receptor, cAMP induction (AlphaScreen), Example 3
T2 sequence (P48546 22-466): T1 sequence (P48546 22-466)

[2] = molecular target: human GLP-1 receptor (GLP-1R) (Homo sapiens, UniProt P43220); experiment: Activity assay at human GLP-1 receptor, cAMP induction (AlphaScreen), Example 3
Sequence of human GLP-1 receptor (GLP-1R) (P43220 24-463): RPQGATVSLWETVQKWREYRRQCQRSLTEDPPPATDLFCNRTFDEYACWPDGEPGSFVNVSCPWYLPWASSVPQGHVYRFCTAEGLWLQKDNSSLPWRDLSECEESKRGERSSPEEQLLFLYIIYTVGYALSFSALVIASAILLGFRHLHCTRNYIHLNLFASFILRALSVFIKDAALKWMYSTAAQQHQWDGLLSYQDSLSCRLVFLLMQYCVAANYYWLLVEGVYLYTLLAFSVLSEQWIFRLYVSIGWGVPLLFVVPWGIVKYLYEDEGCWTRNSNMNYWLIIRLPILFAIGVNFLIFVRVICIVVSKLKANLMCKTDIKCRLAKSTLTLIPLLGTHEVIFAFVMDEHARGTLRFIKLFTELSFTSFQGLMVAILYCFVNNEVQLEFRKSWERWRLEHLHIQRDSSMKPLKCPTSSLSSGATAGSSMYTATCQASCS

Structure (SMILES)	EC50 (human GIP R)	EC50 [1]	EC50 [2]
CC[C@H](C)[C@H](NC(=O)[C@H](Cc1ccccc1)NC(=O)[C@H](CC(=O)O)NC(=O)[C@H](CCC(N)=O)NC(=O)[C@H](C)NC(=O)[C@H](C)NC(=O)[C@H](CCCCNC(=O)COCCOCCNC(=O)COCCOCCNC(=O)CC[C@H](NC(=O)CCCCCCCCCCCCCCCCCCC(=O)O)C(=O)O)NC(=O)[C@H](CCCCN)NC(=O)[C@H](CC(=O)O)NC(=O)[C@H](CC(C)C)NC(=O)[C@H](CCC(=O)O)NC(=O)[C@@H](NC(=O)[C@H](CO)NC(=O)[C@H](Cc1ccc(O)cc1)NC(=O)[C@H](CC(=O)O)NC(=O)[C@H](CO)NC(=O)[C@@H](NC(=O)[C@H](Cc1ccccc1)NC(=O)[C@@H](NC(=O)CNC(=O)[C@H](CCC(=O)O)NC(=O)C(C)(C)NC(=O)[C@@H](N)Cc1ccc(O)cc1)[C@@H](C)O)[C@@H](C)CC)[C@@H](C)CC)C(=O)N[C@@H](CC(N)=O)C(=O)N[C@@H](Cc1c[nH]c2ccccc12)C(=O)N[C@@H](CC(C)C)C(=O)N[C@@H](CC(C)C)C(=O)N[C@@H](C)C(=O)NCC(=O)N1CCC[C@H]1C(=O)N[C@@H](CO)C(=O)N[C@@H](CO)C(=O)NCC(=O)N[C@@H](C)C(=O)N1CCC[C@H]1C(=O)N1CCC[C@H]1C(=O)N1CCC[C@H]1C(=O)N[C@@H](CO)C(N)=O [Compound 31] (H-Y[Aib]EGTFISDYSIELDKK([AEEA-AEEA-γGlu-C20 diacid])AAQDFINWLLAGPSSGAPPPS-NH2)	12 pM	9 pM	> 100000 pM
CC[C@H](C)[C@H](NC(=O)[C@H](CO)NC(=O)[C@H](Cc1ccc(O)cc1)NC(=O)[C@H](CC(=O)O)NC(=O)[C@H](CO)NC(=O)[C@@H](NC(=O)[C@H](Cc1ccccc1)NC(=O)[C@@H](NC(=O)CNC(=O)[C@H](CCC(=O)O)NC(=O)C(C)(C)NC(=O)[C@@H](N)Cc1ccc(O)cc1)[C@@H](C)O)[C@@H](C)CC)C(=O)N[C@@H](CCC(=O)O)C(=O)N[C@@H](CC(C)C)C(=O)N[C@@H](CC(=O)O)C(=O)N[C@@H](CCCCN)C(=O)N[C@@H](CCCCNC(=O)COCCOCCNC(=O)COCCOCCNC(=O)CC[C@H](NC(=O)CCCCCCCCCCCCCCCCCCC(=O)O)C(=O)O)C(=O)N[C@@H](Cc1c[nH]cn1)C(=O)N[C@@H](CCC(N)=O)C(=O)N[C@@H](CCC(N)=O)C(=O)N[C@@H](CC(=O)O)C(=O)N[C@@H](Cc1ccccc1)C(=O)N[C@H](C(=O)N[C@@H](CC(N)=O)C(=O)N[C@@H](Cc1c[nH]c2ccccc12)C(=O)N[C@@H](CC(C)C)C(=O)N[C@@H](CC(C)C)C(=O)N[C@@H](C)C(=O)N[C@@H](CCC(N)=O)C(=O)NCC(=O)N1CCC[C@H]1C(=O)N[C@@H](CO)C(=O)N[C@@H](CO)C(=O)NCC(=O)N[C@@H](C)C(=O)N1CCC[C@H]1C(=O)N1CCC[C@H]1C(=O)N1CCC[C@H]1C(=O)N[C@@H](CO)C(N)=O)C(C)C [Compound 9] (H-Y[Aib]EGTFISDYSIELDKK([AEEA-AEEA-γGlu-C20 diacid])HQQDFVNWLLAQGPSSGAPPPS-NH2)	8 pM	9 pM	> 3000 pM
CC[C@H](C)[C@H](NC(=O)[C@H](Cc1ccccc1)NC(=O)[C@H](C)NC(=O)[C@H](CCC(N)=O)NC(=O)[C@H](C)NC(=O)[C@H](C)NC(=O)[C@H](CCCCNC(=O)COCCOCCNC(=O)COCCOCCNC(=O)CC[C@H](NC(=O)CCCCCCCCCCCCCCCCCCC(=O)O)C(=O)O)NC(=O)[C@H](CCCCN)NC(=O)[C@H](CC(=O)O)NC(=O)[C@H](CC(C)C)NC(=O)[C@H](CCC(=O)O)NC(=O)[C@@H](NC(=O)[C@H](CO)NC(=O)[C@H](Cc1ccc(O)cc1)NC(=O)[C@H](CC(=O)O)NC(=O)[C@H](CO)NC(=O)[C@@H](NC(=O)[C@H](Cc1ccccc1)NC(=O)[C@@H](NC(=O)CNC(=O)[C@H](CCC(=O)O)NC(=O)C(C)(C)NC(=O)[C@@H](N)Cc1ccc(O)cc1)[C@@H](C)O)[C@@H](C)CC)[C@@H](C)CC)C(=O)N[C@@H](CCC(=O)O)C(=O)N[C@@H](Cc1c[nH]c2ccccc12)C(=O)N[C@@H](CC(C)C)C(=O)N[C@@H](CC(C)C)C(=O)N[C@@H](C)C(=O)N[C@@H](CCC(N)=O)C(=O)NCC(=O)N1CCC[C@H]1C(=O)N[C@@H](CO)C(=O)N[C@@H](CO)C(=O)NCC(=O)N[C@@H](C)C(=O)N1CCC[C@H]1C(=O)N1CCC[C@H]1C(=O)N1CCC[C@H]1C(=O)N[C@@H](CO)C(N)=O [Compound 40]	10 pM	7 pM	> 10000 pM
CC[C@H](C)[C@H](NC(=O)[C@H](CCCCN)NC(=O)[C@H](CC(=O)O)NC(=O)[C@H](CC(C)C)NC(=O)[C@H](CCC(=O)O)NC(=O)[C@@H](NC(=O)[C@H](CO)NC(=O)[C@H](Cc1ccc(O)cc1)NC(=O)[C@H](CC(=O)O)NC(=O)[C@H](CO)NC(=O)[C@@H](NC(=O)[C@H](Cc1ccccc1)NC(=O)[C@@H](NC(=O)CNC(=O)[C@H](CCC(=O)O)NC(=O)C(C)(C)NC(=O)[C@@H](N)Cc1ccc(O)cc1)[C@@H](C)O)[C@@H](C)CC)[C@@H](C)CC)C(=O)N[C@@H](C)C(=O)N[C@@H](CCC(N)=O)C(=O)N[C@@H](CCCNC(=N)N)C(=O)N[C@@H](C)C(=O)N[C@@H](Cc1ccccc1)C(=O)N[C@H](C(=O)N[C@@H](CCC(=O)O)C(=O)N[C@@H](Cc1c[nH]c2ccccc12)C(=O)N[C@@H](CC(C)C)C(=O)N[C@@H](CC(C)C)C(=O)N[C@@H](C)C(=O)N[C@@H](CCC(N)=O)C(=O)NCC(=O)N1CCC[C@H]1C(=O)N[C@@H](CO)C(=O)N[C@@H](CO)C(=O)NCC(=O)N[C@@H](C)C(=O)N1CCC[C@H]1C(=O)N1CCC[C@H]1C(=O)N1CCC[C@H]1C(=O)N[C@@H](CO)C(=O)N[C@@H](CCCCNC(=O)COCCOCCNC(=O)COCCOCCNC(=O)CC[C@H](NC(=O)CCCCCCCCCCCCCCCCCCC(=O)O)C(=O)O)C(N)=O)[C@@H](C)CC [Compound 28] (H-Y[Aib]EGTFISDYSIELDKIAQRAFIEWLLAQGPSSGAPPPSK([AEEA-AEEA-γGlu-C20 diacid])-NH2)	7 pM	13 pM	> 3000 pM
CC[C@H](C)[C@H](NC(=O)[C@H](CO)NC(=O)[C@H](Cc1ccc(O)cc1)NC(=O)[C@H](CC(=O)O)NC(=O)[C@H](CO)NC(=O)[C@@H](NC(=O)[C@H](Cc1ccccc1)NC(=O)[C@@H](NC(=O)CNC(=O)[C@H](CCC(=O)O)NC(=O)C(C)(C)NC(=O)[C@@H](N)Cc1ccc(O)cc1)[C@@H](C)O)[C@@H](C)CC)C(=O)N[C@@H](CCC(=O)O)C(=O)N[C@@H](CC(C)C)C(=O)N[C@@H](CC(=O)O)C(=O)N[C@@H](CCCCN)C(=O)N[C@@H](CCCCNC(=O)COCCOCCNC(=O)COCCOCCNC(=O)CN1CCN(C(=O)CCCCCCCCCCCCCCCCCCC(=O)O)CC1)C(=O)N[C@@H](C)C(=O)N[C@@H](CCC(N)=O)C(=O)N[C@@H](CCCNC(=N)N)C(=O)N[C@@H](C)C(=O)N[C@@H](Cc1ccccc1)C(=O)N[C@H](C(=O)N[C@@H](CCC(=O)O)C(=O)N[C@@H](Cc1c[nH]c2ccccc12)C(=O)N[C@@H](CC(C)C)C(=O)N[C@@H](CC(C)C)C(=O)N[C@@H](C)C(=O)N[C@@H](CCC(N)=O)C(=O)NCC(=O)N1CCC[C@H]1C(=O)N[C@@H](CO)C(=O)N[C@@H](CO)C(=O)NCC(=O)N[C@@H](C)C(=O)N1CCC[C@H]1C(=O)N1CCC[C@H]1C(=O)N1CCC[C@H]1C(=O)N[C@@H](CO)C(N)=O)C(C)C [Compound 20] (H-Y[Aib]EGTFISDYSIELDKK([AEEA-AEEA-X1])AQRAFVEWLLAQGPSSGAPPPS-NH2)	7 pM	6 pM	> 3000 pM
